Measured values: ChEMBL document CHEMBL3352057, “Novel fluorinated pyrrolo[1,2-a]pyrazine-2,6-dione derivatives: synthesis and anticonvulsant evaluation in animal models of epilepsy” (Bioorg Med Chem, 2014)
Activity calls are given as the source filed them. The calls are words filed in the database; no cut-off is given here.

What follows are compounds tested on Rattus norvegicus (assay: Neurotoxicity in MES Sprague-Dawley rat model at 30 mg/kg, po measured after 1 hr). Conditions: in vivo.
Type: toxicity, organism-based
Set-up: dose 30 mg/kg, route oral
`Cl.O=C1NC(=O)[C@@H]2C[C@@H](O)CN2C1c1cccc(C(F)(F)F)c1` (mixture of isomers) was tested, and the Activity was “Non-toxic”.

Each compound was assayed on Rattus norvegicus (assay: Neurotoxicity in MES Sprague-Dawley rat model at 30 mg/kg, po measured after 4 hrs). Conditions: in vivo.
Type: toxicity, organism-based
Set-up: dose 30 mg/kg, route oral
`Cl.O=C1NC(=O)[C@@H]2C[C@@H](O)CN2C1c1cccc(C(F)(F)F)c1` (mixture of isomers) was tested, and the Activity was “Non-toxic”.

These compounds were tested on Rattus norvegicus (assay: Anticonvulsant activity in Sprague-Dawley rat assessed as protection against maximal electroshock-induced seizures at 30 mg/kg, po measured after 2 hrs). Conditions: not given.
Type: functional, organism-based
Set-up: dose 30 mg/kg
`Cl.O=C1NC(=O)[C@@H]2C[C@@H](O)CN2C1c1cccc(C(F)(F)F)c1` (mixture of isomers) was tested, and the Activity was “inactive”.

The compounds below were run on Rattus norvegicus (assay: Neurotoxicity in MES Sprague-Dawley rat model at 30 mg/kg, ip measured after 0.5 hr). Conditions: in vivo.
Type: toxicity, organism-based
Set-up: dose 30 mg/kg, route intraperitoneal
In the case of `Cl.O=C1NC(=O)[C@@H]2C[C@@H](O)CN2C1c1cccc(C(F)(F)F)c1` (mixture of isomers), the Activity is reported as “Non-toxic”.

These compounds were tested on Mus musculus (assay: Neurotoxicity in albino CF1 mouse at 100 mg/kg, ip measured after 4 hrs). Conditions: in vivo.
Type: toxicity, organism-based
Set-up: dose 100 mg/kg, route intraperitoneal
In the case of `Cl.O=C1NC(=O)[C@@H]2C[C@@H](O)CN2C1c1cccc(C(F)(F)F)c1` (mixture of isomers), the Activity is reported as “Non-toxic”.

These compounds were tested on Rattus norvegicus (assay: Anticonvulsant activity in Sprague-Dawley rat assessed as protection against maximal electroshock-induced seizures at 30 mg/kg, po measured after 0.25 hr). Conditions: not given.
Type: functional, organism-based
Set-up: dose 30 mg/kg
`Cl.O=C1NC(=O)[C@@H]2C[C@@H](O)CN2C1c1cccc(C(F)(F)F)c1` (mixture of isomers) was tested, and the Activity was “inactive”.

These compounds were tested on Mus musculus (assay: Neurotoxicity in albino CF1 mouse at 100 mg/kg, ip measured after 0.5 hr). Conditions: in vivo.
Type: toxicity, organism-based
Set-up: dose 100 mg/kg, route intraperitoneal
With `Cl.O=C1NC(=O)[C@@H]2C[C@@H](O)CN2C1c1cccc(C(F)(F)F)c1` (mixture of isomers) the Activity was “Toxic”.

The compounds below were run on Mus musculus (assay: Anticonvulsant activity in albino CF1 mouse assessed as protection against 32 mA current-induced seizures at 100 mg/kg, ip measured after 2 hrs). Conditions: not given.
Type: functional, organism-based
Set-up: dose 100 mg/kg
`Cl.O=C1NC(=O)[C@@H]2C[C@@H](O)CN2C1c1cccc(C(F)(F)F)c1` (mixture of isomers) was tested, and the Activity was “inactive”.

These compounds were tested on Rattus norvegicus (assay: Neurotoxicity in MES Sprague-Dawley rat model at 30 mg/kg, ip measured after 0.25 hr). Conditions: in vivo.
Type: toxicity, organism-based
Set-up: dose 30 mg/kg, route intraperitoneal
With `Cl.O=C1NC(=O)[C@@H]2C[C@@H](O)CN2C1c1cccc(C(F)(F)F)c1` (mixture of isomers) the Activity was “Non-toxic”.

The compounds below were run on Rattus norvegicus (assay: Anticonvulsant activity in Sprague-Dawley rat assessed as protection against maximal electroshock-induced seizures at 30 mg/kg, ip measured after 0.5 hr). Conditions: not given.
Type: functional, organism-based
Set-up: dose 30 mg/kg
For `Cl.O=C1NC(=O)[C@@H]2C[C@@H](O)CN2C1c1cccc(C(F)(F)F)c1` (mixture of isomers), the Activity was “inactive”.

What follows are compounds tested on Mus musculus (assay: Anticonvulsant activity in albino CF1 mouse assessed as protection against maximal electroshock-induced seizures at 100 mg/kg, ip measured after 0.5 hr). Conditions: not given.
Type: functional, organism-based
Set-up: dose 100 mg/kg
In the case of `Cl.O=C1NC(=O)[C@@H]2C[C@@H](O)CN2C1c1cccc(C(F)(F)F)c1` (mixture of isomers), the Activity is reported as “Active”.

What follows are compounds tested on Rattus norvegicus (assay: Anticonvulsant activity in Sprague-Dawley rat assessed as protection against maximal electroshock-induced seizures at 30 mg/kg, ip measured after 4 hrs). Conditions: not given.
Type: functional, organism-based
Set-up: dose 30 mg/kg
With `Cl.O=C1NC(=O)[C@@H]2C[C@@H](O)CN2C1c1cccc(C(F)(F)F)c1` (mixture of isomers) the Activity was “inactive”.

What follows are compounds tested on Mus musculus (assay: Anticonvulsant activity in albino CF1 mouse assessed as protection against 32 mA current-induced seizures at 100 mg/kg, ip measured after 0.5 hr). Conditions: not given.
Type: functional, organism-based
Set-up: dose 100 mg/kg
For `Cl.O=C1NC(=O)[C@@H]2C[C@@H](O)CN2C1c1cccc(C(F)(F)F)c1` (mixture of isomers), the Activity was “Active”.

What follows are compounds tested on Rattus norvegicus (assay: Neurotoxicity in MES Sprague-Dawley rat model at 30 mg/kg, po measured after 0.25 hr). Conditions: in vivo.
Type: toxicity, organism-based
Set-up: dose 30 mg/kg, route oral
In the case of `Cl.O=C1NC(=O)[C@@H]2C[C@@H](O)CN2C1c1cccc(C(F)(F)F)c1` (mixture of isomers), the Activity is reported as “Non-toxic”.

The compounds below were run on Mus musculus (assay: Neurotoxicity in 32 mA current-induced seizure albino CF1 mouse model at 100 mg/kg, ip measured after 2 hrs). Conditions: in vivo.
Type: toxicity, organism-based
Set-up: dose 100 mg/kg, route intraperitoneal
`Cl.O=C1NC(=O)[C@@H]2C[C@@H](O)CN2C1c1cccc(C(F)(F)F)c1` (mixture of isomers) was tested, and the Activity was “Non-toxic”.

These compounds were tested on Rattus norvegicus (assay: Anticonvulsant activity in Sprague-Dawley rat assessed as protection against maximal electroshock-induced seizures at 30 mg/kg, po measured after 1 hr). Conditions: not given.
Type: functional, organism-based
Set-up: dose 30 mg/kg
For `Cl.O=C1NC(=O)[C@@H]2C[C@@H](O)CN2C1c1cccc(C(F)(F)F)c1` (mixture of isomers), the Activity was “inactive”.

The compounds below were run on Mus musculus (assay: Neurotoxicity in 32 mA current-induced seizure albino CF1 mouse model at 100 mg/kg, ip measured after 0.5 hr). Conditions: in vivo.
Type: toxicity, organism-based
Set-up: dose 100 mg/kg, route intraperitoneal
`Cl.O=C1NC(=O)[C@@H]2C[C@@H](O)CN2C1c1cccc(C(F)(F)F)c1` (mixture of isomers) was tested, and the Activity was “Toxic”.

The compounds below were run on Rattus norvegicus (assay: Neurotoxicity in MES Sprague-Dawley rat model at 30 mg/kg, ip measured after 2 hrs). Conditions: in vivo.
Type: toxicity, organism-based
Set-up: dose 30 mg/kg, route intraperitoneal
For `Cl.O=C1NC(=O)[C@@H]2C[C@@H](O)CN2C1c1cccc(C(F)(F)F)c1` (mixture of isomers), the Activity was “Non-toxic”.

What follows are compounds tested on Rattus norvegicus (assay: Anticonvulsant activity in Sprague-Dawley rat assessed as protection against maximal electroshock-induced seizures at 30 mg/kg, po measured after 4 hrs). Conditions: not given.
Type: functional, organism-based
Set-up: dose 30 mg/kg
With `Cl.O=C1NC(=O)[C@@H]2C[C@@H](O)CN2C1c1cccc(C(F)(F)F)c1` (mixture of isomers) the Activity was “inactive”.

These compounds were tested on Mus musculus (assay: Anticonvulsant activity in albino CF1 mouse assessed as protection against maximal electroshock-induced seizures at 100 mg/kg, ip measured after 4 hrs). Conditions: not given.
Type: functional, organism-based
Set-up: dose 100 mg/kg
`Cl.O=C1NC(=O)[C@@H]2C[C@@H](O)CN2C1c1cccc(C(F)(F)F)c1` (mixture of isomers) was tested, and the Activity was “inactive”.

These compounds were tested on Rattus norvegicus (assay: Anticonvulsant activity in Sprague-Dawley rat assessed as protection against maximal electroshock-induced seizures at 30 mg/kg, po measured after 0.5 hr). Conditions: not given.
Type: functional, organism-based
Set-up: dose 30 mg/kg
With `Cl.O=C1NC(=O)[C@@H]2C[C@@H](O)CN2C1c1cccc(C(F)(F)F)c1` (mixture of isomers) the Activity was “inactive”.

What follows are compounds tested on Rattus norvegicus (assay: Anticonvulsant activity in Sprague-Dawley rat assessed as protection against maximal electroshock-induced seizures at 30 mg/kg, ip measured after 1 hr). Conditions: not given.
Type: functional, organism-based
Set-up: dose 30 mg/kg
In the case of `Cl.O=C1NC(=O)[C@@H]2C[C@@H](O)CN2C1c1cccc(C(F)(F)F)c1` (mixture of isomers), the Activity is reported as “inactive”.

What follows are compounds tested on Rattus norvegicus (assay: Anticonvulsant activity in Sprague-Dawley rat assessed as protection against maximal electroshock-induced seizures at 30 mg/kg, ip measured after 0.25 hr). Conditions: not given.
Type: functional, organism-based
Set-up: dose 30 mg/kg
With `Cl.O=C1NC(=O)[C@@H]2C[C@@H](O)CN2C1c1cccc(C(F)(F)F)c1` (mixture of isomers) the Activity was “inactive”.

Each compound was assayed on Rattus norvegicus (assay: Neurotoxicity in MES Sprague-Dawley rat model at 30 mg/kg, po measured after 0.5 hr). Conditions: in vivo.
Type: toxicity, organism-based
Set-up: dose 30 mg/kg, route oral
With `Cl.O=C1NC(=O)[C@@H]2C[C@@H](O)CN2C1c1cccc(C(F)(F)F)c1` (mixture of isomers) the Activity was “Non-toxic”.

The compounds below were run on Rattus norvegicus (assay: Anticonvulsant activity in Sprague-Dawley rat assessed as protection against maximal electroshock-induced seizures at 30 mg/kg, ip measured after 2 hrs). Conditions: not given.
Type: functional, organism-based
Set-up: dose 30 mg/kg
In the case of `Cl.O=C1NC(=O)[C@@H]2C[C@@H](O)CN2C1c1cccc(C(F)(F)F)c1` (mixture of isomers), the Activity is reported as “inactive”.

The compounds below were run on Rattus norvegicus (assay: Neurotoxicity in MES Sprague-Dawley rat model at 30 mg/kg, po measured after 2 hrs). Conditions: in vivo.
Type: toxicity, organism-based
Set-up: dose 30 mg/kg, route oral
For `Cl.O=C1NC(=O)[C@@H]2C[C@@H](O)CN2C1c1cccc(C(F)(F)F)c1` (mixture of isomers), the Activity was “Non-toxic”.

Each compound was assayed on Rattus norvegicus (assay: Neurotoxicity in MES Sprague-Dawley rat model at 30 mg/kg, ip measured after 4 hrs). Conditions: in vivo.
Type: toxicity, organism-based
Set-up: dose 30 mg/kg, route intraperitoneal
With `Cl.O=C1NC(=O)[C@@H]2C[C@@H](O)CN2C1c1cccc(C(F)(F)F)c1` (mixture of isomers) the Activity was “Non-toxic”.

What follows are compounds tested on Rattus norvegicus (assay: Neurotoxicity in MES Sprague-Dawley rat model at 30 mg/kg, ip measured after 1 hr). Conditions: in vivo.
Type: toxicity, organism-based
Set-up: dose 30 mg/kg, route intraperitoneal
With `Cl.O=C1NC(=O)[C@@H]2C[C@@H](O)CN2C1c1cccc(C(F)(F)F)c1` (mixture of isomers) the Activity was “Non-toxic”.
